In brackets after ≈: the same amount, converted by molar mass. Like-named read-outs stand apart in the source and are kept apart here.
Assays:
[1] = In vivo pharmacokinetics, mouse; conditions: plasma
hepatocytes = test: Hepatocyte predicted clearance (Hep Clpred), rat; format: in vitro ADME; conditions: in vitro
[2] = system: moderate to severe plaque psoriasis; test: Phase 2b study in plaque psoriasis (Example 4): efficacy; format: in vivo, human; conditions: for Achieving PASI 75 at Week 12, number of patients: mITT
Description: Efficacy Analyses: The primary endpoint can be translated as a responder analysis, where a subject will be classified as responder if he or she achieves PASI-75 at Week 12. The comparison between groups for the primary endpoint will be done using a Cochran-Mantel-Haenszel (CMH), with prior treatment with biologics included as a stratification factor. The primary efficacy analysis will be performed on the intent-to-treat (ITT) analysis set, while the per-protocol (PP) analysis set will be used as a sensitivity analysis.
The secondary endpoints involving proportions of subjects will be analyzed using the same approach (CMH test) as described for the primary efficacy analysis, at each time point and based on the ITT analysis. The continuous secondary endpoints involving absolute change from baseline will be analyzed using a mixed effect model repeated measures method (MMRM) based on the ITT analysis set only. The model will include treatment, visit, treatment-by-visit interaction, and prior treatment with biologics as fixed effects, and baseline score as a covariate.

[3] = Study 101: safety and tolerability of single and multiple ascending doses in healthy subjects
FaSSIF/FeSSIF solubility = format: physicochemical

## CNc1cc(Nc2cccn(-c3ccccn3)c2=O)nc2c(C(=O)N[C@@H]3CC[C@H]3OC)cnn12 [Compound 1, N-((1R,2R)-2-methoxycyclobutyl)-7-(methylamino)-5-((2-oxo-2H-[1,2′-bipyridin]-3-yl)amino)pyrazolo[1,5-a]pyrimidine-3-carboxamide]
[1]; mouse
  half-life: 120 min
[1]; 1 mg/kg, Mouse, 1 mpk IV dose, read-out: Clp, obs
  clearance: 16 mL/min/kg
[1]; 1 mg/kg, Mouse, 1 mpk IV dose, read-out: Vss
  Vd: 1.3 L/kg
[1]; 30 mg/kg, Mouse, PO 30 mpk
  Tmax: 24 min
  bioavailability: 81%
hepatocytes
  Hep Clpred: 30 mL/min/kg
[2]; 2 mg QD (n = 50)
  Achieving PASI 75 at Week 12, number of patients: 9 Number of patients
[2]; 2 mg QD versus placebo
  PASI 75 at Week 12, proportion difference: 12.3
[2]; 5 mg QD (n = 52)
  Achieving PASI 75 at Week 12, number of patients: 23 Number of patients
[2]; 5 mg QD versus placebo
  PASI 75 at Week 12, proportion difference: 38.5
[2]; 15 mg QD (n = 53)
  Achieving PASI 75 at Week 12, number of patients: 36 Number of patients
[2]; 15 mg QD versus placebo
  PASI 75 at Week 12, proportion difference: 61.9
[2]; 30 mg QD (n = 52)
  Achieving PASI 75 at Week 12, number of patients: 35 Number of patients
[2]; 30 mg QD versus placebo
  PASI 75 at Week 12, proportion difference: 61.5
[2]; 30 mg QD, week 12
  patients who achieved clear skin: 33%
[2]; FIG. 15
  fractions of patients achieving PGA 1 and PGA 0 at Week 12: both increased with increasing dose of Compound 1
[2]; in vivo
  primary endpoint (PASI 75 response at week 12): achieved with Compound 1 at doses ≥5 mg
[3]; multiple-dose cohorts
  deaths, serious or severe AEs, AEs leading to discontinuation from the study: no deaths, serious or severe AEs, or AEs leading to discontinuation from the study
[3]; single-dose cohorts
  deaths, serious or severe AEs, AEs leading to discontinuation: no deaths, serious or severe AEs, or AEs leading to discontinuation
FaSSIF/FeSSIF solubility; FaSSIF, read-out: FaSSIF solubility
  solubility: 13 µg/mL (≈ 28.2 µM)
FaSSIF/FeSSIF solubility; FeSSIF, read-out: FeSSIF solubility
  solubility: 70 µg/mL (≈ 152 µM)
